Results taken from patent US20250277012A1 (Protagonist Therapeutics, Inc., priority 2021, published 2025).
Read-outs that look alike come from different tables or passages of the source. Starred links: 1 amine or outer side, 2 acyl side, 3 side chain; linkers in the order of their positions; H or OH if unused. Positions of bridges follow the written chain, without caps; N, C: chain ends. Non-standard residues stand in square brackets, D forms with d. Residues, ends and D or L forms follow the SMILES beside them. Groups on a side chain read outwards from the residue. *: point of attachment. CH3O(CH2CH2O)11CH2CH2CO = COCCOCCOCCOCCOCCOCCOCCOCCOCCOCCOCCOCCC(=O)*; X1 = C[N+](C)(CCNC(=O)CCCCCCCCCCCCCCCCC(=O)O)CC(=O)*; Nva(5-morpholino) = N[C@@H](CCCN1CCOCC1)C(=O)O; Bip = N[C@@H](Cc1ccc(-c2ccccc2)cc1)C(=O)O; C18 diacid = O=C(O)CCCCCCCCCCCCCCCCC(=O)*; Dip = N[C@H](C(=O)O)C(c1ccccc1)c1ccccc1; γGlu = O=C(O)[C@H](CCC(=O)[*:2])N[*:1]; 1Nal = N[C@@H](Cc1cccc2ccccc12)C(=O)O; Palmitoyl = CCCCCCCCCCCCCCCC(=O)*; NMeF = CN[C@@H](Cc1ccccc1)C(=O)O; β3hF = N[C@H](CC(=O)O)Cc1ccccc1; NMeK = CN[C@@H](CCCCN)C(=O)O; Nicotinoyl = O=C(c1cccnc1)*; Isovaleryl = CC(C)CC(=O)*; Dap = NC[C@H](N)C(=O)O; AEEA = NCCOCCOCC(=O)O; Ahx = NCCCCCC(=O)O

Assays:
ferroportin [1] = target: T1, ferroportin (Homo sapiens, UniProt Q9NP59); assay: FPN activity assay: ferroportin-GFP internalization/degradation in HEK293 cells; format: cell-based; parameters: expressed in transfected cells; conditions: read-out: FPN IC50
T1 sequence (Q9NP59 1-571): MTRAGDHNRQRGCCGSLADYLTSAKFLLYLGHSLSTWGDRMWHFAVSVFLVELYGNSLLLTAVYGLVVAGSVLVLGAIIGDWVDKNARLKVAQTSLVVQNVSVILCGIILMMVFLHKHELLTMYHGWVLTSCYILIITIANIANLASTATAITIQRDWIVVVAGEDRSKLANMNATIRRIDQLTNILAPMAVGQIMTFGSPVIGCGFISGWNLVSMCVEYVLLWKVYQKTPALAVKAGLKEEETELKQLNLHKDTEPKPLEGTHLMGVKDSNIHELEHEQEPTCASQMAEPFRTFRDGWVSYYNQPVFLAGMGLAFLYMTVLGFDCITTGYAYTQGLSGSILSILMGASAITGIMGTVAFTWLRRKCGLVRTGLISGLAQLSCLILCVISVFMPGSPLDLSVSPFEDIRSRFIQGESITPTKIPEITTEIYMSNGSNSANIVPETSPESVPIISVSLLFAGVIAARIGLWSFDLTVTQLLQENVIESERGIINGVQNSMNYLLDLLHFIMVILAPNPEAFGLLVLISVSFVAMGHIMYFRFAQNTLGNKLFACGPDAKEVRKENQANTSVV
Procedure: Following internalization, the ferroporin protein is degraded.
A retro inverse peptide is a peptide with a reversed sequence in all D amino acids. An example is that Hy-Glu-Thr-His-NH2 becomes Hy-DHis-DThr-DGlu-NH2. The EC50 of these reference compounds for ferroportin internalization/degradation was determined according to the FPN activity assay described above. These peptides served as control standards.

ferroportin [2] = target: T1, ferroportin; assay: T47D cell-based ferroportin internalization assay in presence of mouse serum albumin (MSA); parameters: a human breast carcinoma adherent cell line which endogenously expresses ferroportin; host or cells: T47D
Summary of the method: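 Peptide potency for inducing ferroportin internalization was measured in T47D cells in the presence of serum albumin. Cells grown in RPMI with fetal bovine serum were seeded in 96-well plates at 80-100 k cells per well in 100 ul and rested overnight. Dilution series of test peptides were preincubated 30 min at room temperature, then added to the cells after the medium was aspirated.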

[3] = Table 6E, ferroportin-GFP internalization/degradation, at least 18 hours incubation
[4] = Table 6E, T47D internalization assay with MSA
[5] = ferroportin-GFP HEK293 cells, at least 18 hours
[6] = T47D cells, 0.5% mouse serum albumin, 1 hr incubation
[7] = ferroportin-GFP internalization/degradation, HEK293 cells, Table 6E
[8] = T47D internalization assay in presence of mouse serum albumin (MSA), Table 6E

DC50 (ferroportin [1]; [7]) [nM] | IC50 (ferroportin [2]; [8]) [nM] | SMILES | other results
– | – | CC(C)CC(=O)N[C@@H](CCC(=O)O)C(=O)N[C@H](C(=O)N[C@@H](Cc1c[nH]cn1)C(=O)N[C@H](C(=O)N1CCC[C@H]1C(=O)N[C@H]1CSSC[C@@H](C(=O)N(C)[C@@H](CCCCNC(=O)CCCCCNC(=O)C[N+](C)(C)CCNC(=O)CCCCCCCCCCCCCCCCC(=O)O)C(=O)N[C@@H](Cc2ccc(-c3ccccc3)cc2)C(=O)N[C@H](CCCCN)C(N)=O)NC1=O)C(c1ccccc1)c1ccccc1)[C@@H](C)O [compound 183] (Isovaleryl-ETH[Dip]PCC[NMeK]([Ahx-X1])[Bip][dK]-NH2; disulfide 6-7) | DC50 (ferroportin [1]; [3]): 10 to 100 nM; IC50 (ferroportin [2]; [4]): 10 to 100 nM
– | – | CC(C)CC(=O)N[C@@H](CCC(=O)O)C(=O)N[C@H](C(=O)N[C@@H](Cc1c[nH]cn1)C(=O)N[C@H](C(=O)N1CCC[C@H]1C(=O)N[C@H]1CSSC[C@@H](C(=O)N[C@@H](CCCCNC(=O)COCCOCCNC(=O)COCCOCCNC(=O)CC[C@H](NC(=O)CCCCCCCCCCCCCCCCC(=O)O)C(=O)O)C(=O)N[C@H](CC(=O)N[C@H](CCCCN)C(N)=O)Cc2ccccc2)NC1=O)C(c1ccccc1)c1ccccc1)[C@@H](C)O [Compd ID 31, Isovaleric Acid-E-T-H-[Dpa]-P-[Cys]-[Cys]-[Lys(1PEG2_1PEG2_IsoGlu_C18_Diacid)]-[bhPhe]-[(D)Lys]-NH2] (Isovaleryl-ETH[Dip]PCCK([AEEA-AEEA-γGlu-C18 diacid])[β3hF][dK]-NH2; disulfide 6-7) | DC50 (ferroportin [1]; [5]): 10 to 100 nM; IC50 (ferroportin [2]; [6]): 10 to 100 nM
10 to 100 | 10 to 100 | CC(C)CC(=O)N[C@@H](CCC(=O)O)C(=O)N[C@H](C(=O)N[C@@H](Cc1c[nH]cn1)C(=O)N[C@H](C(=O)N1CCC[C@H]1C(=O)N[C@H]1CSSC[C@@H](C(=O)N(C)[C@@H](CCCCNC(=O)COCCOCCNC(=O)COCCOCCNC(=O)[C@H](CN)NC(=O)CCCCCCCCCCCCCCCCC(=O)O)C(=O)N[C@H](CC(=O)N[C@H](CCCCN)C(=O)N[C@@H](Cc2cccc3ccccc23)C(N)=O)Cc2ccccc2)NC1=O)C(c1ccccc1)c1ccccc1)[C@@H](C)O [compound 258] (Isovaleryl-ETH[Dip]PCC[NMeK]([AEEA-AEEA-Dap-C18 diacid])[β3hF][dK][1Nal]-NH2; disulfide 6-7) | –
10 to 100 | 10 to 100 | CC(C)CC(=O)N[C@@H](CCC(=O)O)C(=O)N[C@H](C(=O)N[C@@H](Cc1cnc[nH]1)C(=O)N[C@H](C(=O)N1CCC[C@H]1C(=O)N[C@H]1CSSC[C@@H](C(=O)N(C)[C@@H](CCCCNC(=O)COCCOCCNC(=O)COCCOCCNC(=O)[C@H](CN)NC(=O)CCCCCCCCCCCCCCCCC(=O)O)C(=O)N[C@H](C(=O)N(C)[C@@H](CCCCN)C(N)=O)C(c2ccccc2)c2ccccc2)NC1=O)C(c1ccccc1)c1ccccc1)[C@@H](C)O [compound 275] (Isovaleryl-ETH[Dip]PCC[NMeK]([AEEA-AEEA-Dap-C18 diacid])[Dip][NMeK]-NH2; disulfide 6-7) | –
10 to 100 | 10 to 100 | CC(C)CC(=O)N[C@@H](CCC(=O)O)C(=O)N[C@H](C(=O)N[C@@H](Cc1c[nH]cn1)C(=O)N[C@H](C(=O)N1CCC[C@H]1C(=O)N[C@H]1CSSC[C@@H](C(=O)N(C)[C@@H](CCCCNC(=O)COCCOCCNC(=O)COCCOCCNC(=O)[C@H](CN)NC(=O)CCCCCCCCCCCCCCCCC(=O)O)C(=O)N[C@H](CC(=O)N[C@@H](CCCN2CCOCC2)C(N)=O)Cc2ccccc2)NC1=O)C(c1ccccc1)c1ccccc1)[C@@H](C)O [compound 265] (Isovaleryl-ETH[Dip]PCC[NMeK]([AEEA-AEEA-Dap-C18 diacid])[β3hF][Nva(5-morpholino)]-NH2; disulfide 6-7) | –
10 to 100 | 10 to 100 | C[C@@H](O)[C@H](NC(=O)[C@H](CCC(=O)O)NC(=O)c1cccnc1)C(=O)N[C@@H](Cc1c[nH]cn1)C(=O)N[C@H](C(=O)N1CCC[C@H]1C(=O)N[C@H]1CSSC[C@@H](C(=O)N(C)[C@@H](CCCCNC(=O)COCCOCCNC(=O)COCCOCCNC(=O)[C@H](CN)NC(=O)CCCCCCCCCCCCCCCCC(=O)O)C(=O)N[C@H](CC(=O)N[C@H](CCCCN)C(N)=O)Cc2ccccc2)NC1=O)C(c1ccccc1)c1ccccc1 [compound 299] (Nicotinoyl-ETH[Dip]PCC[NMeK]([AEEA-AEEA-Dap-C18 diacid])[β3hF][dK]-NH2; disulfide 6-7) | –
10 to 100 | 10 to 100 | COCCOCCOCCOCCOCCOCCOCCOCCOCCOCCOCCOCCC(=O)NCCCC[C@@H](NC(=O)C[C@H](Cc1ccccc1)NC(=O)[C@H](CCCCNC(=O)COCCOCCNC(=O)COCCOCCNC(=O)[C@H](CN)NC(=O)CCCCCCCCCCCCCCCCC(=O)O)N(C)C(=O)[C@@H]1CSSC[C@H](NC(=O)[C@@H]2CCCN2C(=O)[C@@H](NC(=O)[C@H](Cc2c[nH]cn2)NC(=O)[C@@H](NC(=O)[C@H](CCC(=O)OC)NC(=O)CC(C)C)[C@@H](C)O)C(c2ccccc2)c2ccccc2)C(=O)N1)C(N)=O [compound 254] (Isovaleryl-E(OMe)TH[Dip]PCC[NMeK]([AEEA-AEEA-Dap-C18 diacid])[β3hF][dK](CH3O(CH2CH2O)11CH2CH2CO)-NH2; disulfide 6-7) | –
– | – | COC(=O)CC[C@H](NC(=O)CC(C)C)C(=O)N[C@H](C(=O)N[C@@H](Cc1c[nH]cn1)C(=O)N[C@H](C(=O)N1CCC[C@H]1C(=O)N[C@H]1CSSC[C@@H](C(=O)N(C)[C@@H](CCCCNC(=O)CCCCCNC(=O)C[N+](C)(C)CCNC(=O)CCCCCCCCCCCCCCCCC(=O)O)C(=O)N[C@H](C(=O)N[C@H](CCCCN)C(N)=O)C(c2ccccc2)c2ccccc2)NC1=O)C(c1ccccc1)c1ccccc1)[C@@H](C)OC [compound 147] (Isovaleryl-E(OMe)T(Me)H[Dip]PCC[NMeK]([Ahx-X1])[Dip][dK]-NH2; disulfide 6-7) | DC50 (ferroportin [1]; [3]): 10 to 100 nM; IC50 (ferroportin [2]; [4]): 100 to 500 nM
10 to 100 | 10 to 100 | CC(C)CC(=O)N[C@@H](CCC(=O)O)C(=O)N[C@H](C(=O)N[C@@H](Cc1c[nH]cn1)C(=O)N[C@H](C(=O)N1CCC[C@H]1C(=O)N[C@H]1CSSC[C@@H](C(=O)N(C)[C@@H](CCCCNC(=O)COCCOCCNC(=O)COCCOCCNC(=O)[C@H](CN)NC(=O)CCCCCCCCCCCCCCCCC(=O)O)C(=O)N[C@H](CC(=O)N[C@H](CCCCN)C(=O)N(C)[C@@H](Cc2ccccc2)C(N)=O)Cc2ccccc2)NC1=O)C(c1ccccc1)c1ccccc1)[C@@H](C)O [compound 263] (Isovaleryl-ETH[Dip]PCC[NMeK]([AEEA-AEEA-Dap-C18 diacid])[β3hF][dK][NMeF]-NH2; disulfide 6-7) | –
– | – | CCCCCCCCCCCCCCCC(=O)NCCCCCC(=O)NCCCC[C@H](NC(=O)[C@@H]1CSSC[C@H](NC(=O)[C@@H]2CCCN2C(=O)[C@@H](NC(=O)[C@H](Cc2c[nH]cn2)NC(=O)[C@@H](NC(=O)[C@H](CCC(=O)O)NC(=O)CC(C)C)[C@@H](C)O)C(c2ccccc2)c2ccccc2)C(=O)N1)C(=O)N[C@H](CC(=O)N[C@H](CCCCN)C(N)=O)Cc1ccccc1 [Compd 39] (Isovaleryl-ETH[Dip]PCCK([Ahx-Palmitoyl])[β3hF][dK]-NH2; disulfide 6-7) | DC50 (ferroportin [1]; [5]): 10 to 100 nM; IC50 (ferroportin [2]; [6]): 1 to 10 nM
– | – | CC[C@H](C)[C@@H]1NC(=O)[C@@H](NC(=O)[C@@H]2CCCN2C(=O)[C@@H](NC(=O)[C@H](Cc2c[nH]cn2)NC(=O)[C@@H](NC(=O)[C@H](CCC(=O)O)NC(=O)CC(C)C)[C@@H](C)O)C(c2ccccc2)c2ccccc2)CSSC[C@@H](C(N)=O)NC(=O)C[C@H](Cc2ccccc2)NC(=O)[C@H](CCCCNC(=O)COCCOCCNC(=O)COCCOCCNC(=O)CCCCCNC(=O)CCCCCCCCCCCCCCCCC(=O)O)NC1=O [Compd 23] (Isovaleryl-ETH[Dip]PCIK([AEEA-AEEA-Ahx-C18 diacid])[β3hF]C-NH2; disulfide 6-10) | DC50 (ferroportin [1]; [5]): 10 to 100 nM; IC50 (ferroportin [2]; [6]): 10 to 100 nM
10 to 100 | 1 to 10 | CCCCCCCCCCCCCCCC(=O)NCCCCCC(=O)NCCCC[C@@H](C(=O)N[C@H](CC(=O)N[C@H](CCCCN)C(N)=O)Cc1ccccc1)N(C)C(=O)[C@@H]1CSSC[C@H](NC(=O)[C@@H]2CCCN2C(=O)[C@@H](NC(=O)[C@H](Cc2cnc[nH]2)NC(=O)[C@@H](NC(=O)[C@H](CCC(=O)OC)NC(=O)CC(C)C)[C@@H](C)O)C(c2ccccc2)c2ccccc2)C(=O)N1 [compound 307] (Isovaleryl-E(OMe)TH[Dip]PCC[NMeK]([Ahx-Palmitoyl])[β3hF][dK]-NH2; disulfide 6-7) | –
